Article PMC10465233, “Lys-urea-Aad, Lys-urea-Cmc and Lys-urea-Cms as potential pharmacophores for the design of PSMA-targeted radioligands to reduce off-target uptake in kidneys and salivary glands” (Theranostics, 2023)
Like-named read-outs stand apart in the source and are kept apart here.

Tests used:
LNCaP tumor-bearing mice [1] = details: cited from earlier work
LNCaP tumor-bearing mice [2] = test: Radioligand therapy study in LNCaP tumor-bearing mice; assay type: in vivo, mouse; details: 37 MBq injected
Experimental: Imaging, biodistribution and radioligand therapy experiments were performed following previously published procedures using male NOD-scid IL2Rg^null (NSG) or NOD.Cg-Rag1^tm1MomIl2rg^tm1Wjl/SzJ (NRG) mice [10]-[12],[14]-[15]. The experiments were conducted according to the guidelines established by the Canadian Council on Animal Care and approved by Animal Ethics Committee of the University of British Columbia. The mice were briefly sedated by inhalation of 2% isoflurane in oxygen, and implanted subcutaneously with 1×10^7 LNCaP cells behind the left shoulder. The mice were imaged or used in biodistribution studies when the tumor grew to 5-8 mm in diameter over a period of 4-5 weeks.
For radiotherapy study, tumor-bearing mice were injected with saline (the control group), [^177Lu]Lu-PSMA-617 (37 MBq) or [^177Lu]-HTK03170 (37, 18.5 and 9.3 MBq) (n = 7-8 per treatment group). Tumor size and body weight were measured twice a week from the date of injection (Day 0) until completion of the study (Day 180). Endpoint criteria were defined as > 20% weight loss, tumor volume > 1000 mm^3, or active ulceration of the tumor.

[3] = parameters: method as in earlier work; details: cited from earlier work
[4] = vs Glu-containing [^68Ga]Ga-HTK03041, 1 h post-injection

In the case of `O=C([O-])CN1CCN(CC(=O)[O-])CCN(CC(=O)NCC2CCC(C(=O)NC(Cc3c4ccccc4cc4ccccc34)C(=O)NCCCCC(NC(=O)NC(CCCC(=O)O)C(=O)O)C(=O)O)CC2)CCN(CC(=O)[O-])CC1.[68Ga+3]` (stereo not drawn) [[^68Ga]Ga-HTK03149], the Kidney uptake (LNCaP tumor-bearing mice [1]; 1 h post-injection) is given as 4.15±1.46 %ID/g, the Tumor uptake (LNCaP tumor-bearing mice [1]; 1 h post-injection) is given as 19.1±6.37 %ID/g and the Tumor uptake (LNCaP tumor-bearing mice [1]; 1 h post-injection, listed as [^68Ga]HTK03149) is given as ~ 20 %ID/g. For the same compound, the Salivary gland uptake (LNCaP tumor-bearing mice [1]; 1 h post-injection, unreported data in b5) was 0.22±0.06 %ID/g, the “Reduction in kidney uptake” value (LNCaP tumor-bearing mice [1]; [4]) was > 95% and the “Reduction in salivary gland uptake” value (LNCaP tumor-bearing mice [1]; [4]) was > 95%.

For `O=C([O-])CN1CCN(CC(=O)[O-])CCN(CC(=O)NCC2CCC(C(=O)NC(Cc3ccc4ccccc4c3)C(=O)NCCCCC(NC(=O)NC(CCC(=O)O)C(=O)O)C(=O)O)CC2)CCN(CC(=O)[O-])CC1.[177Lu+3]` (stereo not drawn) [[^177Lu]Lu-PSMA-617], the Median survival (LNCaP tumor-bearing mice [2]) is given as 63 days, the Kinetics value ([3]; source organ Brain) is given as 6.64E-03 MBq-h/MBq and the Kinetics value ([3]; source organ Heart) is given as 3.28E-03 MBq-h/MBq. For the same compound, the Kinetics value ([3]; source organ Kidneys) was 8.23E-01 MBq-h/MBq, the Kinetics value ([3]; source organ Large intestine contents) was 8.80E-03 MBq-h/MBq and the Kinetics value ([3]; source organ Liver) was 6.38E-02 MBq-h/MBq. The Kinetics value ([3]; source organ Lungs) was 4.85E-03 MBq-h/MBq, the Kinetics value ([3]; source organ Pancreas) was 4.76E-03 MBq-h/MBq and the Kinetics value ([3]; source organ Remainder of the body) was 1.68E-01 MBq-h/MBq. The Kinetics value ([3]; source organ Small intestine) was 2.63E-02 MBq-h/MBq, the Kinetics value ([3]; source organ Spleen) was 1.41E-02 MBq-h/MBq and the Kinetics value ([3]; source organ Stomach) was 2.34E-04 MBq-h/MBq. The Kinetics value ([3]; source organ Testes) was 4.23E-03 MBq-h/MBq, the Kinetics value ([3]; source organ Thyroid) was 4.01E-04 MBq-h/MBq and the Kinetics value ([3]; source organ Urinary bladder) was 8.04E-01 MBq-h/MBq.
